Values quoted from earlier work, collected in PubChem BioAssay AID1259409 (Chemical Carcinogenesis Research Information System (CCRIS), 2018).

Test system: rodent chemically induced tumor inhibition, incidence and multiplicity
Assay: CCRIS tumor inhibitor studies
Description: The CCRIS database contains chemical records with carcinogenicity, mutagenicity, tumor promotion, and tumor inhibition test results. It was developed by the National Cancer Institute (NCI). Data are derived from studies cited in primary journals, current awareness tools, NCI reports, and other sources. Test results have been reviewed by experts in carcinogenesis and mutagenesis.
CCRIS provides historical information from the years 1985 - 2011. It is no longer updated.
This is an archive assay for CCRIS tumor inhibitor studies.

## O=C1O[C@H]([C@@H](O)CO)C(O)=C1O
Carcinogen: 7,12-DIMETHYLBENZ[A]ANTHRACENE, 57-97-6, Dose [Inhibitor]: 0, 5000 PPM IN DRINKING WATER FOR 5 MO (STUDY DURATION: 5 MO), Route [Inhibitor]: ORAL, Species: RAT, Strain/Sex: SWISS/FEMALE, Target Tissue: Type of Lesion: MAMMARY GLAND: CRIBRIFORM CARCINOMA, Dose [Carcinogen]: 10 MG ONCE, Promoter: NONE USED
  tumour outcome (control, treated, inhibition, significance): 85%, 50%, 41%, not calculated
Carcinogen: 7,12-DIMETHYLBENZ[A]ANTHRACENE, 57-97-6, Dose [Inhibitor]: 0.2% IN 0.25 ML OF 20:80 WATER-ACETONE DAILY FOR 20 D BEGINNING 1 D POST CARCINOGEN TREATMENT (STUDY DURATION: 19 WK), Route [Inhibitor]: DERMAL, Species: MOUSE, Strain/Sex: ICR/FEMALE, Target Tissue: Type of Lesion: SKIN: PAPILLOMA, Dose [Carcinogen]: 0.125 MG IN 0.25 ML ACETONE ONCE, Promoter: CROTON OIL, 8001-28-3
  tumour outcome (control, treated, inhibition, significance): 43%, 48%, -12%, not significant
Carcinogen: 7,12-DIMETHYLBENZ[A]ANTHRACENE, 57-97-6, Dose [Inhibitor]: 1000 UG APPLIED ONCE 5 MIN PRIOR TO CARCINOGEN DOSE (STUDY DURATION: 28 WK), Route [Inhibitor]: DERMAL, Species: MOUSE, Strain/Sex: CD-1/FEMALE, Target Tissue: Type of Lesion: SKIN: PAPILLOMA, Dose [Carcinogen]: 2.56 UG ONCE, Promoter: 12-O-TETRADECANOYLPHORBOL-13-ACETATE, 16561-29-8
  tumour outcome (control, treated, inhibition, significance): 82%, 56%, 32%, not calculated
Carcinogen: 17BETA-ESTRADIOL, 50-28-2, Dose [Inhibitor]: 1% (W/V) IN REVERSED OSMOSIS DEIONIZED DRINKING WATER FOR 103 D STARTING 93 D AFTER START OF STUDY (STUDY DURATION: 196, Route [Inhibitor]: ORAL, Species: HAMSTER, Strain/Sex: SYRIAN/MALE, Target Tissue: Type of Lesion: KIDNEY: CARCINOMA, Dose [Carcinogen]: 90% OF 31 MG PELLET AT START OF STUDY AND 90% OF 45 MG PELLET 3 MO LATER, Promoter: NONE USED
  tumour outcome (control, treated, inhibition, significance): 16/23 (70%), 9/19 (47%), 33%, not significant
Carcinogen: 17BETA-ESTRADIOL, 50-28-2, Dose [Inhibitor]: 1% (W/V) IN REVERSED OSMOSIS DEIONIZED DRINKING WATER FOR FIRST 92 D OF STUDY (STUDY DURATION: 196 D), Route [Inhibitor]: ORAL, Species: HAMSTER, Strain/Sex: SYRIAN/MALE, Target Tissue: Type of Lesion: KIDNEY: CARCINOMA, Dose [Carcinogen]: 90% OF 31 MG PELLET AT START OF STUDY AND 90% OF 45 MG PELLET 3 MO LATER, Promoter: NONE USED
  tumour outcome (control, treated, inhibition, significance): 16/23 (70%), 15/17 (88%), -26%, not significant
Carcinogen: 17BETA-ESTRADIOL, 50-28-2, Dose [Inhibitor]: 1% IN REVERSED OSMOSIS DEIONIZED DRINKING WATER FOR DURATION OF STUDY (STUDY DURATION: 196 D), Route [Inhibitor]: ORAL, Species: HAMSTER, Strain/Sex: SYRIAN/MALE, Target Tissue: Type of Lesion: KIDNEY: CARCINOMA, Dose [Carcinogen]: 90% OF 31 MG PELLET AT START OF STUDY AND 90% OF 45 MG PELLET 3 MO LATER, Promoter: NONE USED
  tumour outcome (control, treated, inhibition, significance): 16/23 (70%), 10/33 (30%), 57%, p<0.005
Carcinogen: AMINOPYRENE, 1606-67-3, SODIUM NITRITE, 7632-00-0, Carcinogen: AMINOPYRENE, 1606-67-3, SODIUM NITRITE, 7632-00-0, Dose [Inhibitor]: 7 G/KG OF DIET FOR DURATION OF STUDY (STUDY DURATION: 40 WK), Route [Inhibitor]: ORAL, Species: RAT, Strain/Sex: SPRAGUE-DAWLEY/MALE, Target Tissue: Type of Lesion: LIVER: TUMORS, Dose [Carcinogen]: AMINOPYRENE 1 G/L AND SODIUM NITRITE 1 G/L IN DRINKING WATER 5 D/WK FOR 40 WK, Promoter: NONE USED
  tumour outcome (control, treated, inhibition, significance): 12/37 (32%), 0/39 (0%), 100%, not calculated
Carcinogen: AMINOPYRENE, 1606-67-3, SODIUM NITRITE, 7632-00-0, Carcinogen: AMINOPYRENE, 1606-67-3, SODIUM NITRITE, 7632-00-0, Dose [Inhibitor]: 7 G/KG OF DIET FOR DURATION OF STUDY (STUDY DURATION: 40 WK), Route [Inhibitor]: ORAL, Species: RAT, Strain/Sex: SPRAGUE-DAWLEY/MALE, Target Tissue: Type of Lesion: LUNG: TUMORS, Dose [Carcinogen]: AMINOPYRENE 1 G/L AND SODIUM NITRITE 1 G/L IN DRINKING WATER 5 D/WK FOR 40 WK, Promoter: NONE USED
  tumour outcome (control, treated, inhibition, significance): 25/37 (68%), 13/39 (33%), 51%, not calculated
Carcinogen: AMINOPYRENE, 1606-67-3, SODIUM NITRITE, 7632-00-0, Carcinogen: AMINOPYRENE, 1606-67-3, SODIUM NITRITE, 7632-00-0, Dose [Inhibitor]: 7 G/KG OF DIET FOR THE DURATION OF STUDY (STUDY DURATION: 40 WK), Route [Inhibitor]: ORAL, Species: RAT, Strain/Sex: SPRAGUE-DAWLEY/MALE, Target Tissue: Type of Lesion: KIDNEY: TUMORS, Dose [Carcinogen]: AMINOPYRINE 1 G/L AND SODIUM NITRITE 1 G/L IN DRINKING WATER 5 D/WK FOR 40 WK, Promoter: NONE USED
  tumour outcome (control, treated, inhibition, significance): 10/37 (27%), 7/39 (18%), 33%, not calculated
Carcinogen: BENZO[A]PYRENE, 50-32-8, Dose [Inhibitor]: 0, 10 MG/ML IN DRINKING WATER FOR 6 WK (STUDY DURATION: 9 WK), Route [Inhibitor]: ORAL, Species: MOUSE, Strain/Sex: NIGP(S)/FEMALE, Target Tissue: Type of Lesion: LUNG: ADENOMA, Dose [Carcinogen]: 0.5 MG INJECTED IN THE SCAPULAR REGION OF NEWBORN MICE ONCE, Promoter: NONE USED
  tumour outcome (control, treated, inhibition, significance): 56%, 35%, 38%, not calculated
Carcinogen: BENZO[A]PYRENE, 50-32-8, Dose [Inhibitor]: 0, 10 MG/ML IN DRINKING WATER FOR 6 WK (STUDY DURATION: 9 WK), Route [Inhibitor]: ORAL, Species: MOUSE, Strain/Sex: NIGP(S)/MALE, Target Tissue: Type of Lesion: LUNG: ADENOMA, Dose [Carcinogen]: 0.5 MG INJECTED IN THE SCAPULAR REGION OF NEWBORN MICE ONCE, Promoter: NONE USED
  tumour outcome (control, treated, inhibition, significance): 38%, 24%, 37%, not calculated
Carcinogen: BENZO[A]PYRENE, 50-32-8, Dose [Inhibitor]: 0.068 MMOL/G IN DIET FOR 5 WK BEGINNING 1 WK PRIOR TO CARCINOGEN DOSE (STUDY DURATION: 21 WK), Route [Inhibitor]: ORAL, Species: MOUSE, Strain/Sex: ICR/HA/FEMALE, Target Tissue: Type of Lesion: FORESTOMACH: TUMOR, Dose [Carcinogen]: 1 MG IN 0.2 ML CORN OIL 2/WK FOR 4 WK, Promoter: NONE USED
  tumour outcome (control, treated, inhibition, significance): 100%, 95%, 5%, not significant
Carcinogen: DIETHYLNITROSAMINE, 55-18-5, Dose [Inhibitor]: 0, 3 G/L IN DRINKING WATER BEGINNING 1 D PRIOR TO FIRST CARCINOGEN DOSE AND CONTINUING TO 2 D POST LAST CARCINOGEN DOSE, Route [Inhibitor]: ORAL, Species: RAT, Strain/Sex: BD6/FEMALE, Target Tissue: Type of Lesion: ESOPHAGUS: TUMOR, Dose [Carcinogen]: 80 MG/KG BW 1/WK FOR 8 WK, Promoter: NONE USED
  tumour outcome (control, treated, inhibition, significance): 31%, 28%, 10%, not significant
